In paper PMC10746280, “Bacterial efflux pump modulators prevent bacterial growth in macrophages and under broth conditions that mimic the host environment” (mBio, 2023):
Several values for one entry are separate records, joined by “and”; a condition that tells them apart may be missing. Equal entries are not always repeated.

Key:
[1] = test system: RAW 264.7 macrophages; experiment: SAFIRE macrophage assay: host toxicity (adherent macrophage count, morphology); assay type: cell-based
Source text: (§1) In SAFIRE, we used MATLAB software to count the number of macrophages that remain adherent and retain the red fluorescence of MitoTracker, an indicator of voltage across the mitochondrial inner membrane. MATLAB then calculates the signal from bacteria (green fluorescent protein [GFP]) that overlaps with macrophages, as defined by MitoTracker, to estimate bacterial load. […] For example, we observed that the 6-trifluoropyrimidin-2-yl group on the right-hand side of EPM35 is apparently toxic to macrophages. Non-toxic analogs that reduced bacterial load by at least 60% at 5 µM and 25 µM in SAFIRE, as compared with DMSO, progressed and were evaluated in SAFIRE across eight or more concentrations, ranging from 0.001 µM to 50 µM (n = 2). […] Each of the top 13 analogs had at least an eightfold increase in potency and were not toxic for macrophages at 50 µM in the SAFIRE assay (Fig. 1C).
(§2) As previously described ([18]), RAW 264.7 macrophages (between passages 1 and 6) were grown in complete Dulbecco’s modified Eagle’s medium (DMEM) to approximately 70% to 90% confluence, scraped, washed, resuspended, diluted to 5 × 10^4 in 100 µL, and seeded in black, 96-well, glass-bottomed plates (Brooks Life Sciences catalog number MGB096-1-2-LG-L) at 37°C with 5% CO2. Twenty-four hours later, bacteria grown overnight in LB were diluted into 50 µL phosphate buffered saline (PBS) and added to a final concentration of 1 × 10^7 S. Typhimurium SL1344 (sifB::gfp) per milliliter ([78]) for an approximate multiplicity of infection of 30 bacteria per macrophage cell. Forty-five minutes after bacterial addition, gentamicin (Sigma catalog number G1264) was added to a final concentration of 40 µg/mL to inhibit the growth of remaining extracellular bacteria. Two hours after infection, gentamicin-containing medium was removed and replaced with 200 µL fresh DMEM with compound or DMSO (Sigma catalog number 276855) to the stated final concentrations. At 17.5 h after infection, PBS containing MitoTracker Red CMXRos (Life Technologies catalog number M7512), a vital dye for mitochondrial electric potential, was added to a final concentration of 100 nM. At 18 h after infection, 16% paraformaldehyde was added to a final concentration of 4% and incubated at room temperature for 15 min. Cells were washed twice with PBS and stained for 20 min with 1 µM 4′,6-diamidino-2-phenylindole (DAPI), a vital dye for double-stranded DNA, and stored in 90% glycerol in PBS until imaging. Samples were imaged in six fields of view per well using a semiautomated Yokogawa CellVoyager CV1000 confocal scanner system with a 20×, 0.75-numerical aperture (NA) objective. A MATLAB algorithm calculated bacterial accumulation (GFP fluorescence) within macrophages, as defined by DAPI and MitoTracker Red. GFP^+ macrophage area was defined as the number of GFP-positive pixels per macrophage divided by the total number of pixels per macrophage, averaged across all macrophages in the field ([34]).

[2] = test system: S. Typhimurium SL1344 (sifB::gfp) in RAW 264.7 macrophages; experiment: SAFIRE macrophage assay: intracellular bacterial load (GFP signal within macrophages); assay type: cell-based, Salmonella enterica serotype Typhimurium; conditions: 'Toxic' given instead of a score
Source text: as §1, §2

Structure (SMILES)	5 uM Avg Cell # Score [1]	25 uM Avg Cell # Score [1]	5 uM Avg Antibacterial Score [2]	25 uM Avg Antibacterial Score [2]
OC(COc1ccc(Cl)c(Cl)c1)CN1CCOC2(CCOCC2)C1 (centres unmarked) [CU027]	58	104	107	95
OC(COc1ccc(Cl)c(Cl)c1)CN1CCC(NC2CC2)C1 (centres unmarked) [CU028]	85	134	88	41
OC(COc1ccc(Cl)c(Cl)c1)CN1CCC(N2CCOCC2)C1 (centres unmarked) [CU029]	75	146	105	63
OC(COc1ccc(Cl)c(Cl)c1)CN1CCCC(N2CCOCC2)C1 (centres unmarked) [CU030]	57	126	102	45
CC(C)(C)OC(=O)NC1CCN(CC(O)COc2ccc(Cl)c(Cl)c2)C1 (centres unmarked) [CU031]	88	140	102	Toxic
CC(=O)NC1CCN(CC(O)COc2ccc(Cl)c(Cl)c2)C1 (centres unmarked) [CU033]	79	110	106	72
OC(COc1ccccc1)CN1CCC(Nc2nccc(C(F)(F)F)n2)CC1 (centres unmarked) [CU034]	86	57	99	Toxic
COc1ccc(OCC(O)CN2CCC(Nc3nccc(C(F)(F)F)n3)CC2)cc1 (centres unmarked) [CU036]	54	120	102	24
OC(COc1ccc(F)cc1)CN1CCC(Nc2nccc(C(F)(F)F)n2)CC1 (centres unmarked) [CU037]	74	117	106	23
OC(COc1ccc(Cl)cc1Cl)CN1CCC(Nc2nccc(C(F)(F)F)n2)CC1 (centres unmarked) [CU038]	85	181	95	Toxic
OC(COc1ccc(F)cc1F)CN1CCC(Nc2nccc(C(F)(F)F)n2)CC1 (centres unmarked) [CU039]	90	145	107	13
OC(COc1ccccc1Cl)CN1CCC(Nc2nccc(C(F)(F)F)n2)CC1 (centres unmarked) [CU040]	84	114	109	19
N#Cc1ccc(OCC(O)CN2CCC(Nc3nccc(C(F)(F)F)n3)CC2)cc1 (centres unmarked) [CU041]	85	78	106	23
OC(COc1ccc(Cl)c(Cl)c1)CN1CCC(Nc2ncccn2)CC1 (centres unmarked) [CU042]	77	90	105	23
OC(COc1ccccc1)CN1CCC(Nc2ncccn2)CC1 (centres unmarked) [CU043]	69	107	106	81
OC(COc1ccc(Cl)cc1)CN1CCC(Nc2ncccn2)CC1 (centres unmarked) [CU044]	84	100	91	36
OC(COc1ccc(F)cc1)CN1CCC(Nc2ncccn2)CC1 (centres unmarked) [CU045]	86	109	101	99
COc1ccc(OCC(O)CN2CCC(Nc3ncccn3)CC2)cc1 (centres unmarked) [CU046]	74	173	103	75
OC(COc1ccc(Cl)cc1Cl)CN1CCC(Nc2ncccn2)CC1 (centres unmarked) [CU047]	72	141	107	26

Structure (SMILES)	5 uM Avg Cell # Score [1]	25 uM Avg Cell # Score [1]	5 uM Avg Antibacterial Score [2]	25 uM Avg Antibacterial Score [2]
OC(COc1ccc(F)cc1F)CN1CCC(Nc2ncccn2)CC1 (centres unmarked) [CU048]	85	159	105	95
OC(COc1ccccc1Cl)CN1CCC(Nc2ncccn2)CC1 (centres unmarked) [CU049]	84	121	104	61
N#Cc1ccc(OCC(O)CN2CCC(Nc3ncccn3)CC2)cc1 (centres unmarked) [CU050]	102	113	101	95
OC(COc1ccc(Cl)c(Cl)c1)CN1CCC(Nc2nccs2)CC1 (centres unmarked) [CU051]	123	105	58	45
OC(COc1ccccc1)CN1CCC(Nc2nccs2)CC1 (centres unmarked) [CU052]	110	165	106	93
OC(COc1ccc(Cl)cc1)CN1CCC(Nc2nccs2)CC1 (centres unmarked) [CU053]	127	140	101	42
COc1ccc(OCC(O)CN2CCC(Nc3nccs3)CC2)cc1 (centres unmarked) [CU054]	98	96	91	74
OC(COc1ccc(Cl)c(Cl)c1)CN1CCCN(c2nccc(C(F)(F)F)n2)CC1 (centres unmarked) [CU055]	77	99	Toxic	Toxic
CNC(=O)C1CCN(CC(O)COc2ccc(Cl)c(Cl)c2)CC1 (centres unmarked) [CU057]	85	89	101	93
CN(C)C(=O)C1CCN(CC(O)COc2ccc(Cl)c(Cl)c2)CC1 (centres unmarked) [CU058]	85	81	104	72
CCN(CC)C(=O)C1CCN(CC(O)COc2ccc(Cl)c(Cl)c2)CC1 (centres unmarked) [CU059]	105	88	97	46
O=C1CCCN1C1CCN(CC(O)COc2ccc(Cl)c(Cl)c2)CC1 (centres unmarked) [CU060]	100	99	98	83
OC(COc1ccc(Cl)c(Cl)c1)CN1CCN(c2nccc(C(F)(F)F)n2)CC1 (centres unmarked) [CU061]	74	101	Toxic	Toxic
O=C(C1CCN(CC(O)COc2ccc(Cl)c(Cl)c2)CC1)N1CCCC1 (centres unmarked) [CU062]	103	145	95	48
CC(=O)NC1CCN(CC(O)COc2ccc(Cl)c(Cl)c2)CC1 (centres unmarked) [CU063]	107	119	102	78
CC(=O)N(C)C1CCN(CC(O)COc2ccc(Cl)c(Cl)c2)CC1 (centres unmarked) [CU064]	86	82	106	90
NC(=O)C1CCN(CC(O)COc2ccc(Cl)c(Cl)c2)C1 (centres unmarked) [CU065]	80	87	106	90
NC1CN(CC(O)COc2ccc(Cl)c(Cl)c2)C1 (centres unmarked) [CU150]	112 and 118	112 and 143		
